Measurements taken from US12077503B2, “Substituted cyclic amides and their use as herbicides” (FMC CORPORATION, priority 2015, dated 2024).
Read-outs that look alike come from different tables or passages of the source.

Experiments:
Format in all cases: in vivo
Kochia (Kochia scoparia) [1] = assay: Test A postemergence; settings: Bassia scoparia, post-emergence, 240 h; for pest or weed control at 125 g/ha: 125 g ai/ha; for pest or weed control at 500 g/ha: 500 g ai/ha, 0 to 100 scale, 0 is no effect, 100 is complete control, read-out: Kochia plant response rating
Outline: (§1)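 Visual injury scores from 0, no effect, to 100, complete control, were assigned versus untreated controls roughly 10 d after treatment in the greenhouse. Test chemicals, formulated with surfactant in a non-phytotoxic solvent, were applied to planted seeds as a preemergence soil spray or postemergence to one- to two-leaf plants 2 to 10 cm tall, in loam–sand soil.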

[2] = system: pigweed (Amaranthus retroflexus); assay: Test A postemergence; settings: Amaranthus retroflexus, post-emergence, 240 h; for pest or weed control at 125 g/ha: 125 g ai/ha; for pest or weed control at 500 g/ha: 500 g ai/ha, 0 to 100 scale, 0 is no effect, 100 is complete control, read-out: Pigweed plant response rating
Outline: as §1

[3] = system: blackgrass (Alopecurus myosuroides); assay: Test A postemergence; settings: Alopecurus myosuroides, post-emergence, 240 h; for pest or weed control at 125 g/ha: 125 g ai/ha; for pest or weed control at 500 g/ha: 500 g ai/ha, 0 to 100 scale, 0 is no effect, 100 is complete control, read-out: Blackgrass plant response rating
Outline: as §1

[4] = system: Galium (catchweed bedstraw, Galium aparine); assay: Test A postemergence; settings: Galium, post-emergence, 240 h; for pest or weed control at 125 g/ha: 125 g ai/ha; for pest or weed control at 500 g/ha: 500 g ai/ha, 0 to 100 scale, 0 is no effect, 100 is complete control, read-out: Galium plant response rating
Outline: as §1

[5] = system: ryegrass, Italian (Italian ryegrass, Lolium multiflorum); assay: Test A postemergence; settings: Lolium multiflorum, post-emergence, 240 h; for pest or weed control at 125 g/ha: 125 g ai/ha; for pest or weed control at 500 g/ha: 500 g ai/ha, 0 to 100 scale, 0 is no effect, 100 is complete control, read-out: Ryegrass, Italian plant response rating
Outline: as §1

[6] = system: barnyardgrass (Echinochloa crus-galli); assay: Test A postemergence; settings: Echinochloa crus-galli, post-emergence, 240 h; for pest or weed control at 125 g/ha: 125 g ai/ha
Outline: as §1

[7] = system: ragweed (common ragweed, Ambrosia elatior); assay: Test A postemergence; settings: Ambrosia artemisiifolia, post-emergence, 240 h; for pest or weed control at 125 g/ha: 125 g ai/ha; for pest or weed control at 500 g/ha: 500 g ai/ha, 0 to 100 scale, 0 is no effect, 100 is complete control, read-out: Ragweed plant response rating
Outline: as §1

corn (Zea mays) = assay: Test A postemergence; settings: Zea mays, post-emergence, 240 h; for plant injury at 125 g/ha / plant injury at 500 g/ha: postemergence; for plant injury at 125 g/ha: visual injury vs untreated controls after approx. 10 d, 0 = no effect, 100 = complete control, read-out: Corn plant response rating (0 to 100 scale); for plant injury at 500 g/ha: 500 g ai/ha, 0 to 100 scale, 0 is no effect, 100 is complete control, read-out: Corn plant response rating
Outline: as §1

[8] = system: wheat (Triticum aestivum); assay: Test A postemergence; settings: Triticum aestivum, post-emergence, 240 h; for plant injury at 125 g/ha: 125 g ai/ha; for plant injury at 500 g/ha: 500 g ai/ha, 0 to 100 scale, 0 is no effect, 100 is complete control, read-out: Wheat plant response rating
Outline: as §1

[9] = system: giant foxtail (Setaria faberii); assay: Test A postemergence; settings: Setaria faberi, post-emergence, 240 h; for pest or weed control at 125 g/ha: 125 g ai/ha; for pest or weed control at 500 g/ha: 500 g ai/ha, 0 to 100 scale, 0 is no effect, 100 is complete control, read-out: Foxtail, Giant plant response rating
Outline: as §1

rice (Oryra sativa) = assay: Test B flooded paddy test; settings: Oryza sativa, Flood, 250 g ai/ha, read-out: Rice plant response rating
Outline: (§2)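 Visual ratings (0 none to 100 complete control) are relative to untreated plants, taken 13–15 d after treatment in a greenhouse. Test material went straight into floodwater standing 3 cm above the soil, kept constant, on plants at the 2-leaf stage.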

[10] = system: barnyardgrass (Echinochloa crus-galli); assay: Test B flooded paddy test; settings: Echinochloa crus-galli, Flood, 250 g ai/ha, read-out: Barnyardgrass plant response rating
Outline: as §2

[11] = system: ducksalad (Heteranthera limosa); assay: Test B flooded paddy test; settings: Heteranthera limosa, Flood, 250 g ai/ha, read-out: Ducksalad plant response rating
Outline: as §2

[12] = system: sedge, umbrella (small-flower umbrella sedge, Cyperus difformis); assay: Test B flooded paddy test; settings: Cyperus difformis, Flood, 250 g ai/ha, read-out: Sedge, Umbrella plant response rating
Outline: as §2

Kochia (Kochia scoparia) [13] = assay: Test A preemergence; settings: Bassia scoparia, pre-emergence, 240 h, preemergence, read-out: Kochia plant response rating; for pest or weed control at 125 g/ha: 125 g ai/ha; for pest or weed control at 500 g/ha: 500 g ai/ha
Outline: as §1

[14] = scale of 0 to 100 where 0 is no effect and 100 is complete control
[15] = 0 to 100 scale where 0 is no effect and 100 is complete control
[16] = postemergence, visual injury vs untreated controls after approx. 10 d, 0 = no effect, 100 = complete control, read-out: Kochia plant response rating (0 to 100 scale)
[17] = postemergence, visual injury vs untreated controls after approx. 10 d, 0 = no effect, 100 = complete control, read-out: Pigweed plant response rating (0 to 100 scale)
[18] = postemergence, visual injury vs untreated controls after approx. 10 d, 0 = no effect, 100 = complete control, read-out: Blackgrass plant response rating (0 to 100 scale)
[19] = postemergence, visual injury vs untreated controls after approx. 10 d, 0 = no effect, 100 = complete control, read-out: Galium plant response rating (0 to 100 scale)
[20] = postemergence, visual injury vs untreated controls after approx. 10 d, 0 = no effect, 100 = complete control, read-out: Ryegrass, Italian plant response rating (0 to 100 scale)
[21] = postemergence, visual injury vs untreated controls after approx. 10 d, 0 = no effect, 100 = complete control, read-out: Ragweed plant response rating (0 to 100 scale)
[22] = postemergence, visual injury vs untreated controls after approx. 10 d, 0 = no effect, 100 = complete control, read-out: Wheat plant response rating (0 to 100 scale)
[23] = postemergence, visual injury vs untreated controls after approx. 10 d, 0 = no effect, 100 = complete control, read-out: Foxtail, Giant plant response rating (0 to 100 scale)
[24] = visual injury rating, 0 to 100 scale where 0 is no effect and 100 is complete control, approximately 10 d

SMILES	pest or weed control at 125 g/ha (Kochia (Kochia scoparia) [1]; [16]) [%]	pest or weed control at 500 g/ha (Kochia (Kochia scoparia) [1]; postemergence) [%]	pest or weed control at 125 g/ha [2, 17] [%]	pest or weed control at 500 g/ha ([2]; postemergence) [%]	pest or weed control at 125 g/ha [3, 18] [%]	pest or weed control at 500 g/ha ([3]; postemergence) [%]	pest or weed control at 125 g/ha [4, 19] [%]	pest or weed control at 500 g/ha ([4]; postemergence) [%]	pest or weed control at 125 g/ha [5, 20] [%]	pest or weed control at 500 g/ha ([5]; postemergence) [%]	pest or weed control at 125 g/ha [7, 21] [%]	pest or weed control at 500 g/ha ([7]; postemergence) [%]	plant injury at 125 g/ha (corn (Zea mays); 125 g ai/ha) [%]	plant injury at 500 g/ha (corn (Zea mays)) [%]	plant injury at 125 g/ha [8, 22] [%]	plant injury at 500 g/ha ([8]; postemergence) [%]	pest or weed control at 125 g/ha [9, 23] [%]	pest or weed control at 500 g/ha ([9]; postemergence) [%]	pest or weed control at 250 g/ha (rice (Oryra sativa); [15]) [%]	pest or weed control at 250 g/ha [10, 15] [%]	other results
CS(=O)(=O)c1ccccc1NC(=O)[C@H]1C(=O)N(C2CC2)CC[C@@H]1c1cccc(C(F)(F)F)c1 [Compound 927]	–	–	–	–	–	–	–	–	–	–	–	–	–	–	–	–	–	–	–	–	pest or weed control at 125 g/ha (Kochia (Kochia scoparia) [1]; Postemergence, visual injury after approximately 10 d, 0 to 100 scale where 0 is no effect and 100 is complete control, read-out: Plant response rating, Kochia): 0%; pest or weed control at 125 g/ha ([2]; Postemergence, visual injury after approximately 10 d, 0 to 100 scale where 0 is no effect and 100 is complete control, read-out: Plant response rating, Pigweed): 0%; pest or weed control at 125 g/ha ([3]; Postemergence, visual injury after approximately 10 d, 0 to 100 scale where 0 is no effect and 100 is complete control, read-out: Plant response rating, Blackgrass): 0%; pest or weed control at 125 g/ha ([4]; Postemergence, visual injury after approximately 10 d, 0 to 100 scale where 0 is no effect and 100 is complete control, read-out: Plant response rating, Galium): 0%; pest or weed control at 125 g/ha ([5]; Postemergence, visual injury after approximately 10 d, 0 to 100 scale where 0 is no effect and 100 is complete control, read-out: Plant response rating, Ryegrass, Italian): 0%; pest or weed control at 125 g/ha ([6]; Postemergence, visual injury after approximately 10 d, 0 to 100 scale where 0 is no effect and 100 is complete control, read-out: Plant response rating, Barnyardgrass): 0%; pest or weed control at 125 g/ha ([7]; Postemergence, visual injury after approximately 10 d, 0 to 100 scale where 0 is no effect and 100 is complete control, read-out: Plant response rating, Ragweed): 0%; Corn plant response rating (crop injury, 0 = no effect, 100 = complete kill) at 125 g/ha (corn (Zea mays); 125 g ai/ha, Postemergence, visual injury after approximately 10 d, 0 to 100 scale where 0 is no effect and 100 is complete control): 0%; plant injury at 125 g/ha ([8]; Postemergence, visual injury after approximately 10 d, 0 to 100 scale where 0 is no effect and 100 is complete control, read-out: Plant response rating, Wheat): 0%; pest or weed control at 125 g/ha ([9]; Postemergence, visual injury after approximately 10 d, 0 to 100 scale where 0 is no effect and 100 is complete control, read-out: Plant response rating, Foxtail, Giant): 0%; pest or weed control at 250 g/ha (rice (Oryra sativa); [14]): 0%; pest or weed control at 250 g/ha [10, 14]: 0%; pest or weed control at 250 g/ha [11, 14]: 0%; pest or weed control at 250 g/ha [12, 14]: 0%; pest or weed control at 125 g/ha (Kochia (Kochia scoparia) [13]; [15]): 0%; pest or weed control at 500 g/ha (Kochia (Kochia scoparia) [13]; visual injury rating about 10 d after treatment, 0 to 100 scale (0 no effect, 100 complete control)): 0%
CN1C[C@H](c2ccc(C#N)cc2)[C@@H](C(=O)Nc2ccc(F)c(F)c2F)C1=O [Compound 1229]	70	80	40	60	0	40	40	50	0	40	0	0	0	0	0	50	90	90	0	50	pest or weed control at 125 g/ha ([6]; postemergence, visual injury vs untreated controls after approx. 10 d, 0 = no effect, 100 = complete control, read-out: Barnyardgrass plant response rating (0 to 100 scale)): 100%; pest or weed control at 500 g/ha ([6]; 500 g ai/ha, postemergence, 0 to 100 scale, 0 is no effect, 100 is complete control, read-out: Barnyardgrass plant response rating): 100%; pest or weed control at 250 g/ha [11, 15]: 90%; pest or weed control at 250 g/ha [12, 15]: 0%; pest or weed control at 125 g/ha (Kochia (Kochia scoparia) [13]; [24]): 90%; pest or weed control at 500 g/ha (Kochia (Kochia scoparia) [13]; [15]): 90%
COc1ccc([C@H]2CN(C)C(=O)[C@@H]2C(=O)Nc2ccccc2SC)c(OC)c1 [Compound 1216]	0	40	0	0	0	0	0	0	0	0	0	0	0	0	0	0	20	80	0	0	pest or weed control at 250 g/ha [11, 15]: 0%; pest or weed control at 250 g/ha [12, 15]: 0%; pest or weed control at 125 g/ha (Kochia (Kochia scoparia) [13]; [24]): 0%
